# Assay results taken from ChEMBL document CHEMBL5053549, “Discovery of Potent and Novel Dual PARP/BRD4 Inhibitors for Efficient Treatment of Pancreatic Cancer” (J Med Chem, 2021).
# Calls of active or inactive are those of the source. The rule behind the calls is not given here.
# Assays:
# Mus musculus [1] = assay: Inhibition of homologous recombinant repair in human SW1990 cells xenografted in BALB/c mouse assessed as increase in HEX1M1 expression at 45 mg/kg, ip after 4 days by immunohistochemical analysis; format: functional, organism-based; details: time 4.0 day
# [2] = target: T1, Poly [ADP-ribose] polymerase 1 (Homo sapiens, UniProt P09874); assay: Inhibition of PARP1 (unknown origin) incubated for 45 mins in presence of biotinylated-NAD+ by microplate reader analysis
# T1 sequence (P09874 whole entry): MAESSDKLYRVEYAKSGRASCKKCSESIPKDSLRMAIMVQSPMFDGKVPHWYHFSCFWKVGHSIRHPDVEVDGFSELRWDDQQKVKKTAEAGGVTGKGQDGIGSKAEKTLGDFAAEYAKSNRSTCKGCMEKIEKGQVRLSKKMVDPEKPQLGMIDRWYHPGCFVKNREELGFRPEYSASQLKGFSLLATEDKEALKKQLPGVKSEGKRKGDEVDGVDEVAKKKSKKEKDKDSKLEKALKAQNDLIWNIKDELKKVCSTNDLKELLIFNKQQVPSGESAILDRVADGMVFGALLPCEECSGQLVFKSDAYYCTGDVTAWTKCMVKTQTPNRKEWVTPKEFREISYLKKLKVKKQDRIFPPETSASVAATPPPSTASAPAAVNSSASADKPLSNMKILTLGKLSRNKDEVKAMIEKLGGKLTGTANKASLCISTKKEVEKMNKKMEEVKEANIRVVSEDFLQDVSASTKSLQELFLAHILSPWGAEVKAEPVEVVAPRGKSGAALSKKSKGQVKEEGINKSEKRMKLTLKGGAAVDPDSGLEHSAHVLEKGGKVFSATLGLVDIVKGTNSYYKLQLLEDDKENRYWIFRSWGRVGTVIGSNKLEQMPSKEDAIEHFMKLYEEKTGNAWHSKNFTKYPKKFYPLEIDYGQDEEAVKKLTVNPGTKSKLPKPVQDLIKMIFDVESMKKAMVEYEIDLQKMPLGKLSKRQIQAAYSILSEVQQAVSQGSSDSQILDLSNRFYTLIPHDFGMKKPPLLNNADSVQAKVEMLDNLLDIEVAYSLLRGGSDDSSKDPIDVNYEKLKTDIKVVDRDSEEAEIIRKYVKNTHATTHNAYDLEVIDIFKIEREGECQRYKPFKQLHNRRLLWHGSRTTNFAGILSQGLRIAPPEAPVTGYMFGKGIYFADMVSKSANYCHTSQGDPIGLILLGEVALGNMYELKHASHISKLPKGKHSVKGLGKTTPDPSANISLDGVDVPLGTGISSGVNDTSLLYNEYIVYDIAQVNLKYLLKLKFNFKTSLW
# [3] = target: Poly [ADP-ribose] polymerase 2 (Homo sapiens, UniProt Q9UGN5); assay: Inhibition of recombinant PARP2 (unknown origin) incubated for 45 mins in presence of biotinylated-NAD+ by ELISA
# Sequence of Poly [ADP-ribose] polymerase 2 (Q9UGN5 whole entry): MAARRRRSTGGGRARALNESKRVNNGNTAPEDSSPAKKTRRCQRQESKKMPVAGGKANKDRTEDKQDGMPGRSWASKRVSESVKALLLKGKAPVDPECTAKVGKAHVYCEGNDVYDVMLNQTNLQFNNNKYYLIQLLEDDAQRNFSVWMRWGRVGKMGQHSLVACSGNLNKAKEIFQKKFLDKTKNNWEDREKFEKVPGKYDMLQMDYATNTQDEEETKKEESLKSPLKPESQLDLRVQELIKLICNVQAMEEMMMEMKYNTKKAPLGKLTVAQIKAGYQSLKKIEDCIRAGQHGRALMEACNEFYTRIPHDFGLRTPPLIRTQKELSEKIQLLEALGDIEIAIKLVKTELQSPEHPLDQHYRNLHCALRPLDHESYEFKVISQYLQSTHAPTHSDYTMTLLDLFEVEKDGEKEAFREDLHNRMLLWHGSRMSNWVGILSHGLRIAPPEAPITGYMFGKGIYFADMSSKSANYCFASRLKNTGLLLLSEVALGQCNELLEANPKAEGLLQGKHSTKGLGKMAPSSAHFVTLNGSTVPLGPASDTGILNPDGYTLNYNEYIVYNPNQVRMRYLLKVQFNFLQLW
# Mus musculus [4] = assay: Inhibition of homologous recombinant repair in human SW1990 cells xenografted in BALB/c mouse assessed as reduction in BRCA1 expression at 45 mg/kg, ip after 4 days by immunohistochemical analysis; format: functional, organism-based; details: time 4.0 day
# [5] = target: Bromodomain-containing protein 4 (Homo sapiens, UniProt O60885); assay: Inhibition of recombinant BRD4 BD2 (unknown origin) incubated for 120 mins by TR-FRET assay
# [6] = target: T2, Bromodomain-containing protein 1 (Homo sapiens, UniProt O95696); assay: Inhibition of recombinant BRD1 (unknown origin) incubated for 120 mins by TR-FRET assay
# T2 sequence (O95696 whole entry): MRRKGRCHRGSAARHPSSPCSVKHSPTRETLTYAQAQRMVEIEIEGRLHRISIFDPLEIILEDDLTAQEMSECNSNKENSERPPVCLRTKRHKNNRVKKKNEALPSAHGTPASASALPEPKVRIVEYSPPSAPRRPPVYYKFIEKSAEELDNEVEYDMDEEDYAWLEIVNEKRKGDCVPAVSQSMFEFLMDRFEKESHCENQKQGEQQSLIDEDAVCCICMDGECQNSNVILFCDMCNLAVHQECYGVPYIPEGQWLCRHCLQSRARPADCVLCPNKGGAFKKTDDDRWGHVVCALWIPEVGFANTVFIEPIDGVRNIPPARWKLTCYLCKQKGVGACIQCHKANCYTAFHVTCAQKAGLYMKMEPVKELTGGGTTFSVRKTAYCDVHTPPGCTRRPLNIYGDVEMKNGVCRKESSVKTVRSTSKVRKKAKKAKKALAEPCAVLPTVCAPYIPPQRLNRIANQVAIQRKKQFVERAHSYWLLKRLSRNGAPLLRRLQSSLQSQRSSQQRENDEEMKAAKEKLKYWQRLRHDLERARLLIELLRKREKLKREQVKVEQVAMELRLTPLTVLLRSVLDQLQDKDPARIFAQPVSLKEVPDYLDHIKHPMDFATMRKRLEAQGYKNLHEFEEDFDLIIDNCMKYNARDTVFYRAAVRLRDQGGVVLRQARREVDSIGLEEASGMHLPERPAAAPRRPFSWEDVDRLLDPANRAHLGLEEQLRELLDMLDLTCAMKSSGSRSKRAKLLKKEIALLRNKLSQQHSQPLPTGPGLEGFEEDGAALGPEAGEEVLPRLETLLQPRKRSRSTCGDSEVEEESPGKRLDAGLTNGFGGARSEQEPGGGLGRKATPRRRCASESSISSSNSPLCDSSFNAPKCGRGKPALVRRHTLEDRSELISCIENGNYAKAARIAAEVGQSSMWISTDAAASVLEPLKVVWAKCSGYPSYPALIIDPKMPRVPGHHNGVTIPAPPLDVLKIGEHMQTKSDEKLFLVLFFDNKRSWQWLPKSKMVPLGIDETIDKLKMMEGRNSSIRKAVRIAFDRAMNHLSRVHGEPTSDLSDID
# Mus musculus [7] = assay: Toxicity in BALB/c mouse xenografted with human SW1990 cells assessed as lung damage at 45 mg/kg, ip administered for 28 consecutive days by H and E staining based […] microscopic analysis; format: organism-based; details: in vivo, 672 h, time 28 day
# SW1990 [8] = assay: Induction of apoptosis in human SW1990 cells assessed as late apoptotic cells at 1 uM after 4 days by Annexin V-FITC and propidium iodide staining based flow cytometry (reference value: 6.22%); format: functional; details: time 4 day
# SW1990 [9] = assay: Induction of apoptosis in human SW1990 cells assessed as late apoptotic cells at 2 uM after 4 days by Annexin V-FITC and propidium iodide staining based flow cytometry (reference value: 6.22%); format: functional; details: time 4 day
# Mus musculus [10] = assay: Effect on cell cycle progression in human SW1990 cells xenografted in BALB/c mouse assessed as reduction in PLK1 expression at 45 mg/kg, ip after 4 days by Q-PCR analysis; format: functional, organism-based; details: time 4.0 day
# SW1990 [11] = assay: Induction of DNA damage in human SW1990 cells assessed as increase in gammaH2AX at 1 to 2 uM incubated for 4 days by immunofluorescence assay; format: functional, cell-based; details: dose 1-2 µM, time 4.0 day
# SW1990 [12] = assay: Inhibition of homologous recombinant repair in human SW1990 cells assessed as reduction in FOXM1 expression at 1 to 2 uM after 4 days by Q-PCR analysis; format: functional, cell-based; details: dose 1-2 µM, time 4.0 day
# SW1990 [13] = assay: Induction of autophagy in human SW1990 cells assessed as increase in LC3B expression at 1 to 2 uM incubated for 4 days by immunofluorescence assay; format: functional, cell-based; details: dose 1-2 µM, time 4.0 day
# [14] = target: T1, Poly [ADP-ribose] polymerase 1; assay: Inhibition of PARP1 in human SW1990 cells assessed as reversal of Olaparib-induced PARP1 accumulation in nucleus at 1 uM after 4 days by Western blot analysis; format: cell-based; details: time 4.0 day
# Mus musculus [15] = assay: Toxicity in BALB/c mouse xenografted with human SW1990 cells assessed as lung damage at 15 mg/kg, ip administered for 28 consecutive days by H and E staining based […] microscopic analysis; format: organism-based; details: in vivo, 672 h, time 28 day
# Mus musculus [16] = assay: Toxicity in BALB/c mouse xenografted with human SW1990 cells assessed as spleen damage at 15 mg/kg, ip administered for 28 consecutive days by H and E staining based […] microscopic analysis; format: organism-based; details: in vivo, 672 h, time 28 day
# Mus musculus [17] = assay: Toxicity in BALB/c mouse xenografted with human SW1990 cells assessed as liver damage at 15 mg/kg, ip administered for 28 consecutive days by H and E staining based […] microscopic analysis; format: organism-based; details: in vivo, 672 h, time 28 day
# Mus musculus [18] = assay: Toxicity in BALB/c mouse xenografted with human SW1990 cells assessed as kidney damage at 15 mg/kg, ip administered for 28 consecutive days in presence of 45 mg/kg Olaparib; format: organism-based; details: in vivo, 672 h, time 28 day
# Mus musculus [19] = assay: In vivo inhibition of PARP1 expression in human […] cells xenografted in BALB/c mouse assessed as reversal of Olaparib-induced PARP1 accumulation at 15 mg/kg, ip administered for 28 consecutive days in presence of 45 mg/kg Olaparib by immunohistochemical analysis; format: functional, organism-based; details: time 28.0 day
# SW1990 [20] = assay: Induction of cell cycle arrest in human SW1990 cells assessed as accumulation of cells at S phase at 4 uM incubated for 4 days by propidium iodide staining based flow cytometry (reference value: 29.32%); format: functional; details: time 4 day
# SW1990 [21] = assay: Induction of cell cycle arrest in human SW1990 cells assessed as accumulation of cells at G2/M phase at 4 uM incubated for 4 days by propidium iodide staining based flow cytometry (reference value: 5.89%); format: functional; details: time 4 day
# SW1990 [22] = assay: Inhibition of homologous recombinant repair in human SW1990 cells assessed as reduction in Rad51 expression at 4 uM after 4 days by Q-PCR analysis; format: functional, cell-based; details: time 4.0 day
smiles,measurement,setting,value
CC[C@@H]1C(=O)N(C)c2cnc(N(C)c3ccc(-c4nc5c(C(N)=O)cccc5[nH]4)cc3OC)nc2N1C1CCCC1,inhibition,Mus musculus [1],Active
same,IC50,[2],13 nM
same,IC50,[3],4.7 nM
same,inhibition,Mus musculus [4],Active
same,IC50,[5],157 nM
same,IC50,[6],36500 nM
same,Activity,Mus musculus [7],Non-Toxic
same,Activity,SW1990 [8],28.4%
same,Activity,SW1990 [9],40.3%
same,Activity,Mus musculus [10],Active
same,Activity,SW1990 [11],Active
same,inhibition,SW1990 [12],Active
same,Activity,SW1990 [13],Active
Cc1sc2c(c1C)C(c1ccc(Cl)cc1)=N[C@@H](CC(=O)OC(C)(C)C)c1nnc(C)n1-2,inhibition,[14],Active
same,Activity,Mus musculus [15],Non-Toxic
same,Activity,Mus musculus [16],Non-Toxic
same,Activity,Mus musculus [17],Non-Toxic
same,Activity,Mus musculus [18],Non-Toxic
same,Activity,Mus musculus [19],Active
same,Activity,SW1990 [20],19.43%
same,Activity,SW1990 [21],5.51%
same,inhibition,SW1990 [22],Active
